16 compounds from PubChem BioAssay (NCI) can be followed below.

Among the test systems are HOP-18 NSCLC; DLD-1 colon; DMS 273 small cell lung; RXF-631 renal; KM20L2 colon; XF 498 CNS; P388/ADR leukemia; SN12K1 renal.
Assay in all cases: NCI tumour cell line growth inhibition, 48 h

The structures appear in SMILES notation.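 Five compound concentrations were applied to cells in 96-well plates for 48 hours; endpoints were derived by simple linear interpolation of the resulting dose-response curve. At the TGI there is no net growth.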 A value given as a limit tells only on which side of the number the result lay.

Consider `Cn1c2cc(O)cc(O)c2c(=O)c2c([N+](=O)[O-])cccc21`, for which the TGI in the assay on HOP-18 NSCLC, with DLD-1 colon, with DMS 273 small cell lung, in the assay on RXF-631 renal and with KM20L2 colon was > 100 µM throughout.
In the case of `COC(=O)[C@@]12OC[C@]34C([C@@H](O)C1O)[C@@]1(C)CC(=O)C(OC(=O)/C=C(/c5ccccc5)C(F)(F)F)=C(C)C1C[C@H]3OC(=O)[C@H](O)[C@H]42` (some centres undefined), the TGI in the assay with HOP-18 NSCLC is > 50 µM; with XF 498 CNS, 33 µM; in the assay on DLD-1 colon, 31.9 µM; in the assay on DMS 273 small cell lung it was 18 µM; with KM20L2 colon it was 36.6 µM.
With `O=c1cc(-c2ccccc2)oc2cc(OCCSCCCCCCCCCCSCCOc3ccc4c(=O)cc(-c5ccccc5)oc4c3)ccc12`, the TGI with HOP-18 NSCLC, with DLD-1 colon, with RXF-631 renal and with KM20L2 colon was > 100 µM in each case.
In the case of `COC(=O)c1ccc(Cc2ccc(C(=O)OC)o2)o1`, the TGI with HOP-18 NSCLC, in the assay with DLD-1 colon, in the assay on DMS 273 small cell lung, in the assay with RXF-631 renal and with KM20L2 colon was > 378 µM throughout.
As for `O=c1cc(-c2ccc(Cl)cc2)oc2cc(OCCCOc3ccc4c(=O)cc(-c5ccc(Cl)cc5)oc4c3)ccc12`, the TGI in the assay with HOP-18 NSCLC, with XF 498 CNS, in the assay on DLD-1 colon, with DMS 273 small cell lung, in the assay with RXF-631 renal and in the assay on KM20L2 colon was > 100 µM in each case.
Consider `COc1cc2c(cc1OC)C(=O)C(C1=C(SC(=N)N)C(=O)c3cc(OC)c(OC)cc31)C2` (centres undefined), for which the TGI with XF 498 CNS, in the assay on DLD-1 colon, in the assay with DMS 273 small cell lung and in the assay on KM20L2 colon was > 100 µM in each case.
In the case of `COc1cc(/C=C2/C(=O)N(C(=O)c3ccc(Cl)cc3)N=C2C)cc(OC)c1OC`, the TGI in the assay with XF 498 CNS, in the assay on DLD-1 colon and with KM20L2 colon was > 100 µM each time.
Turning to `Cc1ccc(O)c(C(=O)CCCC(=O)c2cc(C)ccc2O)c1`, the TGI with HOP-18 NSCLC, with XF 498 CNS, in the assay with DLD-1 colon, in the assay on DMS 273 small cell lung and in the assay on KM20L2 colon was > 100 µM throughout.
On to `COc1cc([C@@H]2c3cc4c(cc3[C@@H](NC(=O)c3cccc(F)c3)C3COC(=O)[C@@H]32)OCO4)cc(OC)c1O` (some centres undefined), for which the TGI with HOP-18 NSCLC was > 100 µM; in the assay with DLD-1 colon it was 25.4 µM; in the assay with DMS 273 small cell lung, 11.3 µM; in the assay with KM20L2 colon it was 6.89 µM.
On to `N=C(N)SCc1cccc2c(=O)cc(-c3ccccc3)oc12`, for which the TGI in the assay on XF 498 CNS was determined as 28.4 µM; with DLD-1 colon it was 48.5 µM; in the assay on DMS 273 small cell lung, 27.7 µM; in the assay with RXF-631 renal, 28.5 µM; with KM20L2 colon, 45.6 µM.
As to `COc1ccc(C(=O)/C=C/c2ccc(OCC(=O)N3CCN(c4ccccc4)CC3)cc2)cc1`, the TGI in the assay with HOP-18 NSCLC is > 100 µM; in the assay on XF 498 CNS it was > 93.9 µM; in the assay with DLD-1 colon, > 100 µM; with DMS 273 small cell lung, > 100 µM; in the assay with KM20L2 colon, > 100 µM.
`CC(=O)NNc1nc(C)c(C(/C=C/c2ccc(Cl)cc2)=N/NC(=O)C[N+](C)(C)C)s1`: the TGI in the assay with HOP-18 NSCLC, in the assay on DLD-1 colon, in the assay with DMS 273 small cell lung and in the assay with KM20L2 colon was > 100 µM throughout.
For `[N-]=[N+]=NC(CBr)c1cn([C@H]2C[C@H](O)[C@@H](CO)O2)c(=O)[nH]c1=O` (some centres undefined), the TGI in the assay with HOP-18 NSCLC, with DLD-1 colon, with DMS 273 small cell lung and in the assay on KM20L2 colon was > 100 µM in each case.
For the compound `CC(C)C(/C=C/c1ccc(Br)cc1)=N\NC(N)=O`, the TGI in the assay with XF 498 CNS, with DLD-1 colon, in the assay with DMS 273 small cell lung and in the assay with KM20L2 colon was > 100 µM throughout.
For the compound `CSc1nc2[nH]c(=O)c(C)nc2c(=O)[nH]1`, the TGI in the assay on XF 498 CNS, in the assay with DLD-1 colon, with DMS 273 small cell lung and in the assay with KM20L2 colon was > 100 µM in each case.
Regarding `CCCCS(=O)(=O)Nc1ccc(Nc2c3ccccc3nc3ccccc23)c(OC)c1`, the TGI in the assay on HOP-18 NSCLC amounted to 19.8 µM; in the assay with P388/ADR leukemia it was 2.88 µM; with SN12K1 renal, 3.55 µM; in the assay with XF 498 CNS, 10.5 µM; in the assay on DLD-1 colon, 24.4 µM; in the assay with DMS 273 small cell lung, 3.37 µM. The compound further had a TGI in the assay with KM20L2 colon of 11.9 µM.
